Where a name gives a salt, the structure may show the parent alone.
Tests used:
Format in all cases: cell-based
[1] = biological target: T1, human EDG3 (S1PR3) receptor (Homo sapiens, UniProt Q99500); test: Method 2: Aequorin assay, cell pool CHO-A2-S1P3 Mix; conditions: (2): determined with method 2
T1 construct: expressed in transfected cells; host or cells: CHO (cell pool CHO-A2-S1P3 Mix)
Description: (§1) Agonistic activity was measured using two different methods, described below.
(§2) Genetically Engineered Cells
(§3) Cell clone CHO-A21-Edg1 #17 carries the transgenes human EDG1 (S1PR1) receptor (Accession number NP_001391.2), mitochondrially targeted Aequorin (active part corresponds to accession number 1SL8_A) and chimaeric Gaqi5=Gaq modified with the 5 C-terminal amino-acids replaced with those of the Gai protein (DCGLF). CHO-A2-S1P3 Mix is a cell pool ectopically expressing human EDG3 (S1PR3) receptor (Accession number NP_005217.2) mitochondrially targeted Aequorin (active part has a sequence similar to accession number AY601106.1) and GNA16 (Accession number NP_002059.3). Cell clone CHO-A21-EDG8 #12 carries the transgenes human EDG8 (S1PR5) receptor (Accession number NP_110387.1), mitochondrially expressed Aequorin (active part corresponds to accession number 1SL8_A) and chimaeric Gaqi5 (Gaq modified to present the 5 last amino-acids of the Gai protein “DCGLF”; see above). Cells are grown to mid-log phase in culture medium (HAM's F12, 10% FBS, 100 IU/mL penicillin, 100 μg/mL streptomycin, 250 μg/mL Zeocin, 400 μg/mL G418). 18 hours prior to frozen cells preparation, the medium is changed to remove the antibiotics.
(§4) 18 hours prior to the test, vials of frozen cells are quickly thawed in a 37° C. water bath, cells are recovered by centrifugation and resuspended in assay buffer (DMEM/HAM's F12 with HEPES, without phenol red+0.1% fatty acid-free BSA). Cells are gently agitated in suspension overnight at RT in presence of 5 μM of Coelenterazine h (Molecular Probes). On the day of the test, cells are diluted to their final working concentrations in assay buffer and agitated in suspension for 1 h at RT. Cells are then placed in the luminescence reader (Hamamatsu Functional Drug Screening System 6000, FDSS6000). During cells incubation, compounds are prepared in 100% DMSO, and subsequently diluted in assay buffer. Compounds are then dispensed in the assay plate (black, clear-bottom, 384-well plate). After binding of agonists to the human S1P receptor the intracellular calcium concentration increases and binding of calcium to the Aequorin/Coelenterazine complex leads to an oxidation reaction of coelenterazine, which results in the production of […], coelenteramide, CO2 and light (Dmax 469 nm). The luminescent response is dependent on the agonist concentration. For agonist testing, 30 μL of cell suspension are injected on 30 μL of test compound or reference agonist in the assay plate. The resulting emission of light is recorded for 90 seconds using the FDSS6000. Dose response curves with the reference compounds are performed before testing the compounds. S1P is the reference agonist and JTE-013 the reference antagonist for S1P2. […]
(§5) Luminescence data are integrated over the reading interval for agonist and antagonist modes. To standardize the emission of recorded light (determination of the “100% signal”) across plates and across different experiments, some of the wells contain 100 μM digitonin or a saturating concentration of ATP (20 μM). Plates also contain the reference agonist at a concentration equivalent to the EC80 obtained during the test validation and the EC100. Dose-response data from test compounds were analyzed with XLfit (IDBS) software using nonlinear regression applied to a sigmoidal dose-response model and the following equation: • XL Fit fit Model 203: 4 Parameter Logistic Model • A: Bottom • B: TOP • C: LogEC50 • D: Hill fit=(A+((B−A)/(1+(((10^C)/x)^D)))) inv=((10^C)/((((B−A)/(y−A))−1)^(1/D))) res=(y−fit)

[2] = biological target: T2, human EDG1 (S1PR1) receptor (Homo sapiens, UniProt P21453); test: Method 2: Aequorin assay, cell clone CHO-A21-Edg1 #17; conditions: (2): determined with method 2; read-out: S1P1 EC50
T2 construct: expressed in transfected cells; host or cells: CHO (clone CHO-A21-Edg1 #17)
Description: as §1, §2, §3, §4, §5

[3] = biological target: T3, human EDG8 (S1PR5) receptor (Homo sapiens, UniProt Q9H228); test: Method 2: Aequorin assay, cell clone CHO-A21-EDG8 #12; conditions: agonist potency, determined with method 2 (symbols E-G); read-out: S1P5 EC50 range
T3 construct: expressed in transfected cells; host or cells: CHO (clone CHO-A21-EDG8 #12)
Description: as §1, §2, §3, §4, §5

human S1PR5 receptor = biological target: T4, human S1PR5 receptor (Homo sapiens, UniProt Q9H228); test: Method 1: intracellular Ca2+ release (FLIPR, Calcium 5) in recombinant CHO-K1 cells; conditions: agonist potency, determined with method 1 (symbols A-D); read-out: S1P5 EC50 range
T4 construct: host or cells: CHO-K1
Summary of the method: (§6)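 Cells expressing the receptor with promiscuous Gq/i5 are dye-loaded, equilibrated at room temperature and challenged with test compound while fluorescence is recorded by FLIPR. Potency is derived by nonlinear fitting after normalization to phospho-fingolimod.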

human S1PR3 receptor = biological target: T5, human S1PR3 receptor (Homo sapiens, UniProt Q99500); test: as above; conditions: (1): determined with method 1; read-out: S1P3 EC50
T5 construct: host or cells: CHO-K1
Summary of the method: as §6

human S1PR1 receptor = biological target: T6, human S1PR1 receptor (Homo sapiens, UniProt P21453); test: as above; conditions: (1): determined with method 1; read-out: S1P1 EC50
T6 construct: host or cells: CHO-K1
Summary of the method: as §6

human S1PR4 receptor = biological target: T7, human S1PR4 receptor (Homo sapiens, UniProt O95977); test: as above; conditions: (1): determined with method 1; read-out: S1P4 EC50
T7 construct: host or cells: CHO-K1
T7 sequence (O95977 1-384): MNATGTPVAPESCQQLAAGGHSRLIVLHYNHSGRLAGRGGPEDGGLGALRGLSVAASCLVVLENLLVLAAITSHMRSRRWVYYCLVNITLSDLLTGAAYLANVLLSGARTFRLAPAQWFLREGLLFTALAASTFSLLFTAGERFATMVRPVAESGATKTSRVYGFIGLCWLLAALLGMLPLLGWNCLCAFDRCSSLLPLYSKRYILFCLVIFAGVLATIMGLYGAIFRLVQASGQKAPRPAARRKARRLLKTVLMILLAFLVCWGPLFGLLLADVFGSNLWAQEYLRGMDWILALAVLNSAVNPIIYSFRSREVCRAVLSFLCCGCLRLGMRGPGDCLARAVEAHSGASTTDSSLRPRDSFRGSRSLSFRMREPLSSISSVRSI
Summary of the method: as §6

T5 sequence (Q99500 whole entry): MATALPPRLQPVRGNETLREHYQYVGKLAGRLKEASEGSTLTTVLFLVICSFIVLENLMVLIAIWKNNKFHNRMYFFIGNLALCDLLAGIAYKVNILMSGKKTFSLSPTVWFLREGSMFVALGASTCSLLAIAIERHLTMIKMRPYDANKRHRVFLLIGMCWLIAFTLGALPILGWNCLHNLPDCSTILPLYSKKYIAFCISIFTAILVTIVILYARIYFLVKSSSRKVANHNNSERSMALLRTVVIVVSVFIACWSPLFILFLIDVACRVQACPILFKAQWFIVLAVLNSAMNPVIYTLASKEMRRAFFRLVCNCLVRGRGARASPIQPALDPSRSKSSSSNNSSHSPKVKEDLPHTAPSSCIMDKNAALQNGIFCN
T1 sequence (Q99500 whole entry): as above
T4 sequence (Q9H228 whole entry): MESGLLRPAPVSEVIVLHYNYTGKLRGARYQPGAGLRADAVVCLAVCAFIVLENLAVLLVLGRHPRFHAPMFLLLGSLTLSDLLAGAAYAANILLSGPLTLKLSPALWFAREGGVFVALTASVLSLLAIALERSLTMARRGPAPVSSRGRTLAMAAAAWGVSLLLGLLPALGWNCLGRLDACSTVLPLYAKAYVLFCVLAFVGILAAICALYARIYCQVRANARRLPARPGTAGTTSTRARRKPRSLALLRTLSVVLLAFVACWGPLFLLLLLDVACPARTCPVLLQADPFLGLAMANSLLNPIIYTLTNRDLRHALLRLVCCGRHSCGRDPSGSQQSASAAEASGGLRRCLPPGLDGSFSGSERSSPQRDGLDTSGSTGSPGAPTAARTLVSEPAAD
T3 sequence (Q9H228 whole entry): as above
T2 sequence (P21453 whole entry): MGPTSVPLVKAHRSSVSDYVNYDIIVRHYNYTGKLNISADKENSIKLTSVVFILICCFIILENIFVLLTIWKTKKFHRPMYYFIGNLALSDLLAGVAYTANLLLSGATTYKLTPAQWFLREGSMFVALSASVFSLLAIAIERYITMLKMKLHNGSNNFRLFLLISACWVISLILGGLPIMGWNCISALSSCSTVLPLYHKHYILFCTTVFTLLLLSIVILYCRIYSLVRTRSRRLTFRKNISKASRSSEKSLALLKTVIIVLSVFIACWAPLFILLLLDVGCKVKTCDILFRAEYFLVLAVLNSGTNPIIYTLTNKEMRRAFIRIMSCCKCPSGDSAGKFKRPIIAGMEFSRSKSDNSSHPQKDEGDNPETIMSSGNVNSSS
T6 sequence (P21453 whole entry): as above

EC50 [1] [nM] | EC50 [2] [nM] | EC50 [3] [nM] | EC50 (human S1PR5 receptor) [nM] | EC50 (human S1PR3 receptor) [nM] | EC50 (human S1PR1 receptor) [nM] | EC50 (human S1PR4 receptor) [nM] | Compound
> 1000 | > 1000 | 1000 to 10000 | – | – | – | – | O=C(O)CCN1CCc2nc(-c3ccc(OCc4cccc(F)c4F)cc3)ncc2C1 [Compound 69, 3-(2-(4-((2,3-difluorobenzyl)oxy)phenyl)-7,8-dihydropyrido[4,3-d]pyrimidin-6(5H)-yl)propanoic acid]
> 1000 | > 1000 | 100 to 1000 | – | – | – | – | O=C(O)CCN1CCc2nc(-c3ccc(OCc4ccccc4F)c(Cl)c3)ccc2C1 [Compound 141]
> 1000 | > 1000 | 100 to 1000 | – | – | – | – | Cc1cc(-c2ccc3c(n2)CCN(CCC(=O)O)C3)ccc1OCc1ccccc1 [Compound 139, 3-(2-(4-(benzyloxy)-3-methylphenyl)-7,8-dihydro-1,6-naphthyridin-6(5H)-yl)propanoic acid]
> 1000 | > 1000 | 1000 to 10000 | – | – | – | – | CC(CN1Cc2ccc(-c3ccc(OCc4ccccc4)cc3)nc2C1)C(=O)O (stereo not drawn) [Compound 199, 3-(2-(4-(benzyloxy)phenyl)-5H-pyrrolo[3,4-b]pyridin-6(7H)-yl)-2-methylpropanoic acid]
> 1000 | > 1000 | 100 to 1000 | – | – | – | – | CC(CN1CCc2nc(-c3ccc(OCc4c(Cl)cccc4Cl)cc3)ncc2C1)C(=O)O (stereo not drawn) [Compound 7, 3-(2-(4-(2,6-dichlorobenzyloxy)phenyl)-7,8-dihydropyrido[4,3-d]pyrimidin-6(5H)-yl)-2-methylpropanoic acid]
> 1000 | > 1000 | 1000 to 10000 | – | – | – | – | O=C(O)CCN1CCc2cc(-c3ccc(OCc4ccccc4)cc3)nnc2C1 [Compound 207, 3-(3-(4-(benzyloxy)phenyl)-5,6-dihydropyrido[3,4-c]pyridazin-7(8H)-yl)propanoic acid]
> 1000 | > 1000 | 1000 to 10000 | – | – | – | – | O=C(O)CCN1CCc2nc(-c3ccc(OCc4ccccc4)cc3C(F)(F)F)ccc2C1 [Compound 136, 3-(2-(4-(benzyloxy)-2-trifluoromethylphenyl)-7,8-dihydro-1,6-naphthyridin-6(5H)-yl)propanoic acid]
> 1000 | > 1000 | 100 to 1000 | – | – | – | – | O=C(O)CCN1CCc2nc(-c3ccc(OCc4ccccc4)c(F)c3)ccc2C1 [Compound 137, 3-(2-(4-(benzyloxy)-3-fluorophenyl)-7,8-dihydro-1,6-naphthyridin-6(5H)-yl)propanoic acid]
> 1000 | > 1000 | 1000 to 10000 | – | – | – | – | CC(CC(=O)O)N1CCc2nc(-c3ccc(OCc4ccccc4)cc3)ccc2C1 (stereo not drawn) [Compound 113, 3-(2-(4-(benzyloxy)phenyl)-7,8-dihydro-1,6-naphthyridin-6(5H)-yl)butanoic acid]
> 1000 | > 1000 | 100 to 1000 | – | – | – | – | O=C(O)CCN1CCc2nc(-c3ccc(OCc4ccccc4)c(C(F)(F)F)c3)ccc2C1 [Compound 143, 3-(2-(4-(benzyloxy)-3-trifluoromethylphenyl)-7,8-dihydro-1,6-naphthyridin-6(5H)-yl)propanoic acid]
> 1000 | > 1000 | 1000 to 10000 | – | – | – | – | CC(CC(=O)O)N1Cc2ccc(-c3ccc(OCc4ccccc4)cc3)nc2C1 (stereo not drawn) [Compound 200, 3-(2-(4-(benzyloxy)phenyl)-5H-pyrrolo[3,4-b]pyridin-6(7H)-yl)butanoic acid]
> 1000 | > 1000 | 1000 to 10000 | – | – | – | – | O=C(O)CCN1Cc2ccc(-c3ccc(OCc4ccccc4)cc3)nc2C1 [Compound 202, 3-(2-(4-(benzyloxy)phenyl)-5H-pyrrolo[3,4-b]pyridin-6(7H)-yl)propanoic acid]
> 1000 | > 1000 | 1000 to 10000 | – | – | – | – | COc1cc(OCc2ccccc2)ccc1-c1ccc2c(n1)CCN(CCC(=O)O)C2 [Compound 138, 3-(2-(4-(benzyloxy)-2-methoxyphenyl)-7,8-dihydro-1,6-naphthyridin-6(5H)-yl)propanoic acid]
> 1000 | > 1000 | 1000 to 10000 | – | – | – | – | COc1cc(-c2ccc3c(n2)CCN(CCC(=O)O)C3)ccc1OCc1ccccc1 [Compound 142, 3-(2-(4-(benzyloxy)-3-methoxyphenyl)-7,8-dihydro-1,6-naphthyridin-6(5H)-yl)propanoic acid]
> 1000 | > 1000 | < 100 | – | – | – | – | O=C(O)CCN1CCc2nc(-c3ccc(OCc4cccc(F)c4F)cc3)ccc2C1 [Compound 131, 3-(2-(4-((2,3-difluorobenzyl)oxy)phenyl)-7,8-dihydro-1,6-naphthyridin-6(5H)-yl)propanoic acid]
> 1000 | > 1000 | 100 to 1000 | – | – | – | – | O=C(O)CCN1CCc2nc(-c3ccc(OCc4ccc(F)cc4)c(Cl)c3)ccc2C1 [Compound 140, 3-(2-(3-chloro-4-((4-fluorobenzyl)oxy)phenyl)-7,8-dihydro-1,6-naphthyridin-6(5H)-yl)propanoic acid]
– | – | – | < 10 | > 1000 | > 1000 | > 1000 | CC(CC(=O)O)CN1CCc2nc(-c3ccc(OCc4ccccc4C(F)(F)F)cc3)ncc2C1 (stereo not drawn) [Compound 254, 3-methyl-4-[2-[4-[[2-(trifluoromethyl)phenyl]methoxy]phenyl]-7,8-dihydro-5H-pyrido[4,3-d]pyrimidin-6-yl]butanoic acid 2,2,2-trifluoroacetic acid salt]
– | – | – | < 10 | < 1000 | > 1000 | > 1000 | O=C(O)CCN1CCc2nc(-c3ccc(OCc4cccc(Cl)c4)cc3)cnc2C1 [Compound 179, 3-(2-(4-((3-chlorobenzyl)oxy)phenyl)-7,8-dihydropyrido[3,4-b]pyrazin-6(5H)-yl)propanoic acid]
– | – | – | < 10 | > 1000 | > 1000 | > 1000 | CC(CC(=O)O)CN1CCc2nc(-c3ccc(OCc4cccc(Cl)c4)cc3)ncc2C1 (stereo not drawn) [Compound 22, 4-(2-(4-((3-chlorobenzyl)oxy)phenyl)-7,8-dihydropyrido[4,3-d]pyrimidin-6(5H)-yl)-3-methylbutanoic acid]
